Source: US20080039438A1, “1B-Methylcarbapenem Derivative and Process for the Preparation Thereof” (Korea Institute of Science and Technology, priority 2004, published 2008)
Converted amounts (≈) assume the structure as drawn. Like-named read-outs stand apart in the source and are kept apart here.

Key:
[1] = test system: Staphylococcus aureus 285; test: MIC against standard strains (agar dilution); type: cell-based; details: standard strain Staphylococcus aureus 285, 37° C., 18 to 20 hours, read-out: Minimum Inhibitory Concentration (MIC)
[2] = test system: Staphylococcus aureus 503; test: MIC against standard strains (agar dilution); type: cell-based; details: standard strain Staphylococcus aureus 503, 37° C., 18 to 20 hours, read-out: Minimum Inhibitory Concentration (MIC)
Escherichia coli 078 = test: MIC against standard strains (agar dilution); type: cell-based; details: standard strain Escherichia coli 078, 37° C., 18 to 20 hours, read-out: Minimum Inhibitory Concentration (MIC)
Escherichia coli 1507E = test: MIC against standard strains (agar dilution); type: cell-based; details: standard strain Escherichia coli 1507E, 37° C., 18 to 20 hours, read-out: Minimum Inhibitory Concentration (MIC)
Salmonella typhimurium = test: MIC against standard strains (agar dilution); type: cell-based; details: Salmonella enterica, standard strain Salmonella typhimurium, 37° C., 18 to 20 hours, read-out: Minimum Inhibitory Concentration (MIC)
[3] = test system: Methicillin-sensitive Staphylococcus aureus; test: MIC against clinically isolated aerobic Gram-positive strains; type: cell-based; details: 33 strains
Staphylococcus coagulase = test: as above; type: cell-based; details: for MIC50 / MIC90: Staphylococcus; for MIC Range: clinically isolated Staphylococcus coagulase, 22 strains
Streptococcus agalactiae = test: as above; type: cell-based; details: 15 strains
Enterococcus faecium = test: as above; type: cell-based
Moraxella catarrhalis = test: MIC against clinically isolated aerobic Gram-negative strains; type: cell-based; details: 24 strains
Klebsiella oxytoca = test: as above; type: cell-based; details: 15 strains
Enterobacter aerogenes = test: as above; type: cell-based; details: 14 strains; for MIC50 / MIC90: Klebsiella aerogenes
Serratia marcescens = test: as above; type: cell-based; details: 14 strains
Proteus mirabilis = test: as above; type: cell-based; details: 15 strains
Proteus vulgaris = test: as above; type: cell-based; details: 15 strains
Pseudomonas aeruginosa = test: as above; type: cell-based; details: 60 strains
Peptostreptococcus spp. = test: MIC against clinically isolated anaerobic Gram-positive strains; type: cell-based; details: 27 strains
Clostridium difficile = test: as above; type: cell-based; details: 15 strains; for MIC50 / MIC90: Clostridioides difficile
Procedure: The in vitro antibacterial activities of the sodium 3-carboxylate compound of the present invention prepared in the above Example were measured against standard strains (Table 1), clinically isolated aerobic Gram-positive strains (Table 2), clinically isolated aerobic Gram-negative strains (Table 3), clinically isolated anaerobic Gram-positive strains (Table 4) and clinically isolated anaerobic Gram-negative strains (Table 5) using Gram-positive bacteria such as Streptococcus and Staphylococcus, Gram-negative bacteria such as Escherichia, Salmonella, Krebsiella and Enterobacter. Imipenem (IPM), meropenem (MPM) and ertapenem (EPM) were used as control groups.
The results are shown in Tables 1 to 5, and MIC50 and MIC90 represent the concentrations at which the test strain's growth was inhibited to the extents of 50% and 90%, respectively.

[4] = Pharmacokinetics test in rats; type: in vivo, Sprague-Dawley rats
Procedure: (§1) The pharmacokinetic behavior of the sodium 3-carboxylate compound of Example was determined as follows. Male Sprague-Dawley rats (weighing 250 g, 14-15 weeks old, 5 rats/group) and Beagle dogs (weighing 10 kg, 3 dogs/group) were maintained by feeding conventional hard food at identical conditions for more than 7 days. The test animals were fasted except water for more than 24 hours before tested. […] 500 μl of each blood sample was centrifuged at 12,000 rpm for 30 seconds, the supernatant was filtered through a 0.22 μm filter, and analyzed by HPLC/UV, and the result was listed in Table 7.

[5] = Pharmacokinetics test in dogs; type: in vivo, Beagle dogs; details: dog, intravenous, 5 mg/kg
Procedure: as §1

DHP-I = target: T1, DHP-I (Sus scrofa, UniProt P22412); type: in vitro ADME, porcine; details: pig, 50 μg/ml, pH 7
T1 construct: DHP-I used in the experiment was isolated from the kidney cortex of a porcine; from tissue; host or cells: porcine kidney cortex
T1 sequence (P22412 17-384): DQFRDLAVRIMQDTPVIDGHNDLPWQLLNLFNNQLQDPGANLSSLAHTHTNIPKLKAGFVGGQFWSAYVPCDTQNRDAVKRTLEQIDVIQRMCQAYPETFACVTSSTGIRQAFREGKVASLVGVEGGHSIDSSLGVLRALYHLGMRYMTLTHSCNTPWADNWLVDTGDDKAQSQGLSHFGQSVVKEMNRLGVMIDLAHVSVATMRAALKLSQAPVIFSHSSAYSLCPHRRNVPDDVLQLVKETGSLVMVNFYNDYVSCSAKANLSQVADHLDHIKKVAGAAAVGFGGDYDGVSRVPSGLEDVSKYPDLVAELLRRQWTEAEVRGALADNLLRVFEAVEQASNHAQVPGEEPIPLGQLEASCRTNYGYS
Procedure: To investigate the stability of sodium 3-carboxylate compound of formula (I) prepared in Example to DHP-I secreted in the kidney, the following experiment was performed.
DHP-I used in the experiment was isolated from the kidney cortex of a porcine. The enzyme quantity at which the concentration of imipenem was reduced by one half by hydrolysis at 30° C. for 30 minutes was defined as one unit. 50 μg/ml of a test drug and a unit of DHP-I were added to 1 ml of MOPS buffer (pH 7.0), the mixture was maintained at 30° C. and OD values at 299 nm were measured after 0.5, 1, 2, 4 hours.

[6] = Beagle, supernatant of centrifuged blood
[7] = clinically isolated Enterococcus faecium, 29 strains
[8] = clinically isolated Enterococcus faecium, 29 strains, read-out: MIC50
[9] = clinically isolated Enterococcus faecium, 29 strains, read-out: MIC90
[10] = male, Sprague-Dawley, supernatant of centrifuged blood, rat, intravenous, 20 mg/kg

## C[C@@H](O)[C@H]1C(=O)N2C(C(=O)O)=C(S[C@@H]3CN[C@H](C(=O)N(C)C)C3)[C@H](C)[C@H]12 [MPM, meropenem]
[1]
  MIC: 0.195 µg/mL (≈ 0.509 µM)
[2]
  MIC: 0.098 µg/mL (≈ 0.256 µM)
Escherichia coli 078
  MIC: 0.025 µg/mL (≈ 0.0652 µM)
Escherichia coli 1507E
  MIC: 0.025 µg/mL (≈ 0.0652 µM)
Salmonella typhimurium
  MIC: 0.049 µg/mL (≈ 0.128 µM)
[3]
  MIC50: 0.12 µg/mL (≈ 0.313 µM)
  MIC90: 0.12 µg/mL (≈ 0.313 µM)
  MIC Range: 0.06 to 0.25 µg/mL
Staphylococcus coagulase
  MIC50: 0.06 µg/mL (≈ 0.156 µM)
  MIC90: 0.12 µg/mL (≈ 0.313 µM)
  MIC Range: 0.03 to 0.5 µg/mL
Streptococcus agalactiae
  MIC50: 0.03 µg/mL (≈ 0.0782 µM)
  MIC90: 0.03 µg/mL (≈ 0.0782 µM)
  MIC Range: 0.03 µg/mL (≈ 0.0782 µM)
Enterococcus faecium; Enterococcus faecium
  MIC50: 128 µg/mL (≈ 334 µM)
  MIC90: 128 µg/mL (≈ 334 µM)
Moraxella catarrhalis
  MIC50: 0.008 µg/mL (≈ 0.0209 µM)
  MIC90: 0.008 µg/mL (≈ 0.0209 µM)
  MIC Range: 0.008 to 0.03 µg/mL
Klebsiella oxytoca
  MIC50: 0.03 µg/mL (≈ 0.0782 µM)
  MIC90: 0.03 µg/mL (≈ 0.0782 µM)
  MIC Range: 0.015 to 0.06 µg/mL
Enterobacter aerogenes
  MIC Range: 0.015 to 0.06 µg/mL
  MIC50: 0.03 µg/mL (≈ 0.0782 µM)
  MIC90: 0.06 µg/mL (≈ 0.156 µM)
Serratia marcescens
  MIC50: 0.03 µg/mL (≈ 0.0782 µM)
  MIC90: 8 µg/mL (≈ 20.9 µM)
  MIC Range: 0.03 to 8 µg/mL
Proteus mirabilis
  MIC50: 0.06 µg/mL (≈ 0.156 µM)
  MIC90: 0.06 µg/mL (≈ 0.156 µM)
  MIC Range: 0.015 to 0.06 µg/mL
Proteus vulgaris
  MIC50: 0.06 µg/mL (≈ 0.156 µM)
  MIC90: 0.06 µg/mL (≈ 0.156 µM)
  MIC Range: 0.03 to 0.06 µg/mL
Pseudomonas aeruginosa
  MIC50: 2 µg/mL (≈ 5.22 µM)
  MIC90: 16 µg/mL (≈ 41.7 µM)
Peptostreptococcus spp.
  MIC50: 0.06 µg/mL (≈ 0.156 µM)
  MIC90: 4 µg/mL (≈ 10.4 µM)
  MIC Range: 0.06 to 4 µg/mL
Clostridium difficile
  MIC Range: 1 to 2 µg/mL
  MIC50: 1 µg/mL (≈ 2.61 µM)
  MIC90: 2 µg/mL (≈ 5.22 µM)
[4]; rat, intravenous, 20 mg/kg
  AUC: 383 ± 36 µg·min/mL
  CL: 54.2 ± 5.3 mL/min/kg
  T1/2: 4.0 ± 0.2 min
[5]; [6]
  AUC: 11600 ng·h/mL
[5]
  T1/2: 33 min

## C[C@@H](O)[C@H]1C(=O)N2C(C(=O)O)=C(S[C@@H]3CN[C@H](/C=C/c4cc(C(=O)O)no4)C3)[C@H](C)[C@H]12 [Example, (1R,5S,6S,8R,3′S,5′S)-2-{5′-[(E)-2-(3-carboxylic acid or sodium carboxylate-5-isoxazolo)ethenyl]pyrrolidin-3′-ylthio}-6-(1-hydroxyethyl)-1-methylcarbapen-2-em-3-carboxylic acid]
[1]
  MIC: 0.195 µg/mL
[2]
  MIC: 0.098 µg/mL
Escherichia coli 078
  MIC: 0.025 µg/mL
Escherichia coli 1507E
  MIC: 0.025 µg/mL
Salmonella typhimurium
  MIC: 0.049 µg/mL
[3]
  MIC50: 0.12 µg/mL
  MIC90: 0.12 µg/mL
  MIC Range: 0.06 to 0.12 µg/mL
Staphylococcus coagulase
  MIC50: 0.12 µg/mL
  MIC90: 0.25 µg/mL
  MIC Range: 0.06 to 0.5 µg/mL
Streptococcus agalactiae
  MIC50: 0.008 µg/mL
  MIC90: 0.015 µg/mL
  MIC Range: 0.008 to 0.015 µg/mL
Enterococcus faecium; [7]
  MIC Range: 16 to 128 µg/mL
Enterococcus faecium; [8]
  MIC50: 128 µg/mL
Enterococcus faecium; [9]
  MIC90: 128 µg/mL
Moraxella catarrhalis
  MIC50: 0.03 µg/mL
  MIC90: 0.06 µg/mL
  MIC Range: 0.015 to 0.06 µg/mL
Klebsiella oxytoca
  MIC50: 0.03 µg/mL
  MIC90: 0.03 µg/mL
  MIC Range: 0.015 to 0.25 µg/mL
Enterobacter aerogenes
  MIC Range: 0.015 to 0.12 µg/mL
  MIC50: 0.06 µg/mL
  MIC90: 0.25 µg/mL
Serratia marcescens
  MIC50: 0.03 µg/mL
  MIC90: 16 µg/mL
  MIC Range: 0.03 to 16 µg/mL
Proteus mirabilis
  MIC50: 0.03 µg/mL
  MIC90: 0.06 µg/mL
  MIC Range: 0.015 to 0.06 µg/mL
Proteus vulgaris
  MIC50: 0.06 µg/mL
  MIC90: 0.06 µg/mL
  MIC Range: 0.03 to 0.06 µg/mL
Pseudomonas aeruginosa
  MIC50: 4 µg/mL
  MIC90: 64 µg/mL
  MIC Range: 0.06 to 128 µg/mL
Peptostreptococcus spp.
  MIC50: 0.12 µg/mL
  MIC90: 4 µg/mL
  MIC Range: 0.06 to 4 µg/mL
Clostridium difficile
  MIC Range: 2 to 4 µg/mL
  MIC50: 4 µg/mL
  MIC90: 4 µg/mL
DHP-I
  higher stability to DHP-I than imipenem: about 25 fold
[4]; in rats, versus meropenem
  higher bioavailability than meropenem: about 4 fold
  longer half-life than meropenem: about 3 fold
[4]; [10]
  clearance: 13.3 ± 1.5 mL/min/kg
  half-life: 12.4 ± 4.1 min
[4]; male, Sprague-Dawley, supernatant of centrifuged blood, rat, intravenous, 20 mg/kg, read-out: AUC (converted)
  AUC: 1520 µg·min/mL
[5]; [6]
  AUC: 14400 ng·h/mL
  half-life: 41 min

## C[C@@H](O)[C@H]1C(=O)N2C(C(=O)O)=C(SCCN=CN)C[C@H]12 [IPM, Imipenem]
[1]
  MIC: 0.013 µg/mL (≈ 0.0434 µM)
[2]
  MIC: 0.007 µg/mL (≈ 0.0234 µM)
Escherichia coli 078
  MIC: 0.098 µg/mL (≈ 0.327 µM)
Escherichia coli 1507E
  MIC: 0.098 µg/mL (≈ 0.327 µM)
Salmonella typhimurium
  MIC: 0.781 µg/mL (≈ 2.61 µM)
[3]
  MIC50: 0.015 µg/mL (≈ 0.0501 µM)
  MIC90: 0.03 µg/mL (≈ 0.1 µM)
  MIC Range: 0.015 to 0.06 µg/mL
Staphylococcus coagulase
  MIC50: 0.015 µg/mL (≈ 0.0501 µM)
  MIC90: 0.015 µg/mL (≈ 0.0501 µM)
  MIC Range: 0.008 to 0.03 µg/mL
Streptococcus agalactiae
  MIC50: 0.008 µg/mL (≈ 0.0267 µM)
  MIC90: 0.015 µg/mL (≈ 0.0501 µM)
  MIC Range: 0.008 to 0.015 µg/mL
Enterococcus faecium; [7]
  MIC Range: 2 to 128 µg/mL
Enterococcus faecium; [8]
  MIC50: 128 µg/mL (≈ 428 µM)
Enterococcus faecium; [9]
  MIC90: 128 µg/mL (≈ 428 µM)
Moraxella catarrhalis
  MIC50: 0.06 µg/mL (≈ 0.2 µM)
  MIC90: 0.06 µg/mL (≈ 0.2 µM)
  MIC Range: 0.008 to 0.25 µg/mL
Klebsiella oxytoca
  MIC50: 0.12 µg/mL (≈ 0.401 µM)
  MIC90: 0.5 µg/mL (≈ 1.67 µM)
  MIC Range: 0.06 to 0.5 µg/mL
Enterobacter aerogenes
  MIC Range: 0.12 to 0.5 µg/mL
  MIC50: 0.12 µg/mL (≈ 0.401 µM)
  MIC90: 0.5 µg/mL (≈ 1.67 µM)
Serratia marcescens
  MIC50: 0.25 µg/mL (≈ 0.835 µM)
  MIC90: 2 µg/mL (≈ 6.68 µM)
  MIC Range: 0.12 to 4 µg/mL
Proteus mirabilis
  MIC50: 2 µg/mL (≈ 6.68 µM)
  MIC90: 2 µg/mL (≈ 6.68 µM)
  MIC Range: 0.25 to 4 µg/mL
Proteus vulgaris
  MIC50: 1 µg/mL (≈ 3.34 µM)
  MIC90: 2 µg/mL (≈ 6.68 µM)
  MIC Range: 0.25 to 2 µg/mL
Pseudomonas aeruginosa
  MIC50: 2 µg/mL (≈ 6.68 µM)
  MIC90: 16 µg/mL (≈ 53.4 µM)
  MIC Range: 0.5 to 128 µg/mL
Peptostreptococcus spp.
  MIC50: 0.06 µg/mL (≈ 0.2 µM)
  MIC90: 2 µg/mL (≈ 6.68 µM)
  MIC Range: 0.06 to 2 µg/mL
Clostridium difficile
  MIC Range: 4 to 16 µg/mL
  MIC50: 8 µg/mL (≈ 26.7 µM)
  MIC90: 8 µg/mL (≈ 26.7 µM)
